Measurements as given in paper PMC5515969, “Effects of 31 FDA approved small-molecule kinase inhibitors on isolated rat liver mitochondria” (Archives of Toxicology, 2016).
Read-outs that look alike come from different tables or passages of the source.

Legend:
[1] = tested on: isolated rat liver mitochondria; test: Mitochondrial oxygen consumption (glutamate/malate or succinate driven, state 4 and state 3); type: biochemical; settings: for Glutamate/malate driven respiration State 3 / Glutamate/malate driven respiration State 4 / Succinate-driven respiration State 3 / Succinate-driven respiration State 4: oxygen consumption, DMSO-treated = 1; for State 3 respiration driven by succinate at 10XCmax: key: 0 indicates that the drug had no effects (negative); for State 3 respiration driven by succinate at 1XCmax: key: 0 indicates that the drug had no effects (negative)
In short: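 Oxygen uptake on glutamate/malate or on succinate defined state 4; ADP added 3 min later gave state 3. Mitochondria isolated from rat liver by differential centrifugation, adjusted to 1 mg/ml and pretreated 5 min with inhibitor (0.1% DMSO final). Values relative to DMSO control, set to 1.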

[2] = tested on: RCC I; test: RCC I activity in submitochondrial particles; type: biochemical, rat; set-up: key to RCC I at 10XCmax / RCC I at 100XCmax / RCC I at 50XCmax / RCC I at 30XCmax / RCC I at 20XCmax: activity relative to DMSO-treated controls (control set as 1 = 100%); settings: 10XCmax; DMSO treated samples set as 1
In short: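 First, submitochondrial particles (1 mg/ml) are incubated with inhibitor for 15 min. Next, complex activities are followed spectrophotometrically, with RCC I taken as the difference between buffers lacking and containing rotenone. Finally, activities are expressed relative to DMSO controls set at 1.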

[3] = target: T1, RCC II (Rattus norvegicus, UniProt P21913+Q641Z9+Q6PCT8+Q920L2); test: RCC II activity in submitochondrial particles; type: biochemical; set-up: key: activity relative to DMSO-treated controls (control set as 1 = 100%); settings: DMSO treated samples set as 1
T1 construct: Submitochondrial particles were prepared by subjecting the intact mitochondria to three successive freeze–thaw cycles; from tissue; host or cells: rat liver mitochondria, used as submitochondrial particles
T1 sequence (Q920L2 35-656): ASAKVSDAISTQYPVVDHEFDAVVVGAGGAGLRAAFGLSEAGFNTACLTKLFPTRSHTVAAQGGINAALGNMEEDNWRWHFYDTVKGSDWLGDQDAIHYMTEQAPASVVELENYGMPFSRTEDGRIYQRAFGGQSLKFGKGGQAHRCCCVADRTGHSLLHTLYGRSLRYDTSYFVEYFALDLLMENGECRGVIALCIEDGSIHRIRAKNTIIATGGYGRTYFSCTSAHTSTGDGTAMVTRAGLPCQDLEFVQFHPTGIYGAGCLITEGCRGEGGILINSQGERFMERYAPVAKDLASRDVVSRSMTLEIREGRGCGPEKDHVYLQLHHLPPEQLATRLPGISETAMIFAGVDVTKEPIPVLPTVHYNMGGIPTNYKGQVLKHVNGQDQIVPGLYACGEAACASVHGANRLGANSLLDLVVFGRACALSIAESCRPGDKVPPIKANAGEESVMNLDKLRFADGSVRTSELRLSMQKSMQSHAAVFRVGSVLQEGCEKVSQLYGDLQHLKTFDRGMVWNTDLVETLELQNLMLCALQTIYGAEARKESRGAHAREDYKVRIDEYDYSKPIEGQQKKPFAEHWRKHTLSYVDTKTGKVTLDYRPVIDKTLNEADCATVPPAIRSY
T1 sequence (P21913 31-282): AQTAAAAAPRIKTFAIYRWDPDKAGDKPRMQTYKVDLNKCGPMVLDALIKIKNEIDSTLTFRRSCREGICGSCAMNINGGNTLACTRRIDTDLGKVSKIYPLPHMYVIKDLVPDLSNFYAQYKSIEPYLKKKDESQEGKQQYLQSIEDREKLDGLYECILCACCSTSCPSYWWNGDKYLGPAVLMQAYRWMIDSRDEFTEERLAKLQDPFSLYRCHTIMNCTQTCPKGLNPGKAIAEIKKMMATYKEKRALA
T1 sequence (Q641Z9 1-169): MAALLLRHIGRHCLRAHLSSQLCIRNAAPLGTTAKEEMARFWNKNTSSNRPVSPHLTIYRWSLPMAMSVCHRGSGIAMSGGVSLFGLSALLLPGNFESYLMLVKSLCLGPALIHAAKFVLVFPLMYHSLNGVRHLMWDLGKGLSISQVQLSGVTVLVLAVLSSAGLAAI
T1 sequence (Q6PCT8 57-159): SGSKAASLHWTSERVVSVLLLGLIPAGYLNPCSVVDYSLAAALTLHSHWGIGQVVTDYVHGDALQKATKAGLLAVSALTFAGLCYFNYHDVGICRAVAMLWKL
In short: (§1)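 Abs 340 nm (I/V) or 600 nm (II), 1-min reads × 6 min; 550 nm (III, IV), 10-s reads × 2 min. RCC I = rotenone-free minus rotenone rate. DMSO control = 1.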

[4] = tested on: RCC III; test: RCC III activity in submitochondrial particles; type: biochemical, rat; set-up: key to RCC III at 100XCmax: activity relative to DMSO-treated controls (control set as 1 = 100%); settings: 100XCmax
In short: as §1

[5] = tested on: RCC V; test: RCC V activity in submitochondrial particles; type: biochemical, rat; settings: DMSO treated samples set as 1; for RCC V at 5XCmax: key: 0 indicates that the drug had no effects (negative)
In short: as §1

[6] = tested on: isolated rat liver mitochondria; test: Mitochondrial swelling (absorbance at 535 nm); type: biochemical; for Swelling 5XCmax: key: 0 indicates that the drug had no effects (negative)
[7] = tested on: isolated rat liver mitochondria; settings: positive control alamethicin treated samples
[8] = cited from earlier work
[9] = cited from earlier work; remark: listed apart in the source
[10] = tested on: isolated rat liver mitochondria; test: Mitochondrial ROS production (CM-H2DCFDA)
[11] = 1XCmax, DMSO treated samples set as 1
[12] = 2.5XCmax, DMSO treated samples set as 1
[13] = 5XCmax, DMSO treated samples set as 1
[14] = 10XCmax, DMSO treated samples set as 1
[15] = 20XCmax, DMSO treated samples set as 1
[16] = 30XCmax, DMSO treated samples set as 1
[17] = 50XCmax, DMSO treated samples set as 1
[18] = 100XCmax, DMSO treated samples set as 1

CC(C)(C)c1nc(-c2cccc(NS(=O)(=O)c3c(F)cccc3F)c2F)c(-c2ccnc(N)n2)s1 [Dabrafenib]
State 3 respiration driven by glutamate/malate at 1XCmax [1, 11]: 0
State 3 respiration driven by succinate at 1XCmax [1, 11]: 0
State 4 respiration driven by glutamate/malate at 1XCmax [1, 11]: 0
State 4 respiration driven by succinate at 1XCmax [1, 11]: 0
State 3 respiration driven by glutamate/malate at 2.5XCmax [1, 12]: 0
State 3 respiration driven by succinate at 2.5XCmax [1, 12]: 0
State 4 respiration driven by glutamate/malate at 2.5XCmax [1, 12]: 0
State 4 respiration driven by succinate at 2.5XCmax [1, 12]: 0
State 3 respiration driven by glutamate/malate at 5XCmax [1, 13]: 0
State 3 respiration driven by succinate at 5XCmax [1, 13]: 0
State 4 respiration driven by glutamate/malate at 5XCmax [1, 13]: 0
State 4 respiration driven by succinate at 5XCmax [1, 13]: 0
Glutamate/malate driven respiration State 3 ([1]; 10-fold Cmax): 0.94 ± 0.04
Glutamate/malate driven respiration State 4 ([1]; 10-fold Cmax): 1.35 ± 0.19
Succinate-driven respiration State 3 ([1]; 10-fold Cmax): 0.97 ± 0.07
Succinate-driven respiration State 4 ([1]; 10-fold Cmax): 1.38 ± 0.13
State 3 respiration driven by glutamate/malate at 10XCmax [1, 14]: 0
State 3 respiration driven by succinate at 10XCmax [1, 14]: 0
State 4 respiration driven by glutamate/malate at 10XCmax [1, 14]: 1.35±0.19
State 4 respiration driven by succinate at 10XCmax [1, 14]: 1.38±0.13
Glutamate/malate driven respiration State 3 ([1]; 20-fold Cmax): 0.90 ± 0.05
Glutamate/malate driven respiration State 4 ([1]; 20-fold Cmax): 1.59 ± 0.05
Succinate-driven respiration State 3 ([1]; 20-fold Cmax): 0.65 ± 0.01
Succinate-driven respiration State 4 ([1]; 20-fold Cmax): 1.31 ± 0.02
State 3 respiration driven by glutamate/malate at 20XCmax [1, 15]: 0
State 3 respiration driven by succinate at 20XCmax [1, 15]: 0.65±0.01
State 4 respiration driven by glutamate/malate at 20XCmax [1, 15]: 1.59±0.05
State 4 respiration driven by succinate at 20XCmax [1, 15]: 1.31±0.02
Glutamate/malate driven respiration State 3 ([1]; 30-fold Cmax): 0.71 ± 0.03
Glutamate/malate driven respiration State 4 ([1]; 30-fold Cmax): 2.22 ± 0.24
Succinate-driven respiration State 3 ([1]; 30-fold Cmax): 0.59 ± 0.07
Succinate-driven respiration State 4 ([1]; 30-fold Cmax): 1.52 ± 0.12
State 3 respiration driven by glutamate/malate at 30XCmax [1, 16]: 0.71±0.03
State 3 respiration driven by succinate at 30XCmax [1, 16]: 0.59±0.07
State 4 respiration driven by glutamate/malate at 30XCmax [1, 16]: 2.22±0.24
State 4 respiration driven by succinate at 30XCmax [1, 16]: 1.52±0.12
Glutamate/malate driven respiration State 3 ([1]; 50-fold Cmax): 0.56 ± 0.05
Glutamate/malate driven respiration State 4 ([1]; 50-fold Cmax): 2.42 ± 0.21
Succinate-driven respiration State 3 ([1]; 50-fold Cmax): 0.44 ± 0.10
Succinate-driven respiration State 4 ([1]; 50-fold Cmax): 1.69 ± 0.30
State 3 respiration driven by glutamate/malate at 50XCmax [1, 17]: 0.56±0.05
State 3 respiration driven by succinate at 50XCmax [1, 17]: 0.44±0.10
State 4 respiration driven by glutamate/malate at 50XCmax [1, 17]: 2.42±0.21
State 4 respiration driven by succinate at 50XCmax [1, 17]: 1.69±0.30
Glutamate/malate driven respiration State 3 ([1]; 100-fold Cmax): 0.41 ± 0.05
Glutamate/malate driven respiration State 4 ([1]; 100-fold Cmax): 2.49 ± 0.32
Succinate-driven respiration State 3 ([1]; 100-fold Cmax): 0.28 ± 0.01
Succinate-driven respiration State 4 ([1]; 100-fold Cmax): 1.03 ± 0.09
State 3 respiration driven by glutamate/malate at 100XCmax [1, 18]: 0.41±0.05
State 3 respiration driven by succinate at 100XCmax [1, 18]: 0.28±0.01
State 4 respiration driven by glutamate/malate at 100XCmax [1, 18]: 2.49±0.32
State 4 respiration driven by succinate at 100XCmax [1, 18]: 0
effect on state 4 respiration ([1]; highest tested concentrations): significant increases
lowest concentration significantly affecting mitochondrial oxygen consumption ([1]; tested at 1 to 100-fold Cmax): tenfold
RCC I at 10XCmax [2]: 0
RCC II at 1.0XCmax ([3]; 1.0XCmax): 0
RCC II at 2.5XCmax ([3]; 2.5XCmax): 0
RCC II at 5XCmax ([3]; 5XCmax): 0
RCC II at 10XCmax ([3]; 10XCmax): 0
RCC II at 20XCmax ([3]; 20XCmax): 0
RCC II at 30XCmax ([3]; 30XCmax): 0
RCC II at 50XCmax ([3]; 50XCmax): 0
RCC II at 100XCmax ([3]; 100XCmax): 0
RCC III at 100XCmax [4]: 0
RCC V at 5XCmax ([5]; 5XCmax): 0
RCC V at 50XCmax ([5]; 50XCmax): 0
lowest concentration causing mitochondrial swelling [6]: tenfold
Swelling 1XCmax ([6]; 1XCmax, difference in signal between KI and DMSO treated samples at the end of experiments): 0
Swelling 2.5XCmax ([6]; 2.5XCmax, difference in signal between KI and DMSO treated samples at the end of experiments): 0
Swelling 5XCmax ([6]; 5XCmax, difference in signal between KI and DMSO treated samples at the end of experiments): 0
Swelling 10XCmax ([6]; 10XCmax, difference in signal between KI and DMSO treated samples at the end of experiments): 0.20±0.02
Swelling 20XCmax ([6]; 20XCmax, difference in signal between KI and DMSO treated samples at the end of experiments): 0.48±0.05
Swelling 30XCmax ([6]; 30XCmax, difference in signal between KI and DMSO treated samples at the end of experiments): 0.46±0.05
Swelling 50XCmax ([6]; 50XCmax, difference in signal between KI and DMSO treated samples at the end of experiments): 0.44±0.04
Swelling 100XCmax ([6]; 100XCmax, difference in signal between KI and DMSO treated samples at the end of experiments): 0.39±0.04
effect on mitochondrial swelling ([6]; up to 100-fold Cmax or highest testable concentration, 25 µM calcium chloride): significant mitochondrial swelling
Cytochrome c release 1XCmax ([7]; 1XCmax): 0
Cytochrome c release 2.5XCmax ([7]; 2.5XCmax): 0
Cytochrome c release 5XCmax ([7]; 5XCmax): 19.44±2.10 percentage of the positive control group
Cytochrome c release 10XCmax ([7]; 10XCmax): 15.99±0.85 percentage of the positive control group
Cytochrome c release 20XCmax ([7]; 20XCmax): 17.52±7.37 percentage of the positive control group
Cytochrome c release 30XCmax ([7]; 30XCmax): 17.54±2.16 percentage of the positive control group
Cytochrome c release 50XCmax ([7]; 50XCmax): 21.81±7.02 percentage of the positive control group
Cytochrome c release 100XCmax ([7]; 100XCmax): 15.21±0.35 percentage of the positive control group
Cmax ([8]; human therapeutic Cmax at FDA recommended dosages, ref product labeling and drug approval packages at the official FDA website): 2.84 µM
Cmax (ng or µg/ml) ([8]; human therapeutic maximal blood concentration, ref product labeling): 1,478 ng/ml
Cmax ([8]; read-out: Cmax at µM, human therapeutic maximal blood concentration, ref product labeling): 2.84 µM
DILI potential (based on labeling) ([9]; 1 DILI positive, 0 negative according to labeling, ref product labeling): 0
DILI potential (based on labeling) ([9]; ref FDA product labeling): 0
lowest concentration triggering ROS overproduction [10]: 50 fold Cmax
ROS measured by CM-H2DCFDA at 1XCmax [10, 11]: 0
ROS measured by CM-H2DCFDA at 2.5XCmax [10, 12]: 0
ROS measured by CM-H2DCFDA at 5XCmax [10, 13]: 0
ROS measured by CM-H2DCFDA at 10XCmax [10, 14]: 0
ROS measured by CM-H2DCFDA at 20XCmax [10, 15]: 0
ROS measured by CM-H2DCFDA at 30XCmax [10, 16]: 0
ROS measured by CM-H2DCFDA at 50XCmax [10, 17]: 2.23±0.44
ROS measured by CM-H2DCFDA at 100XCmax [10, 18]: 1.80±0.16
effect on ROS production ([10]; highest tested concentrations): significantly ROS production
